O=C(O)c1cc2ccccc2cc1O
solubility (mole fraction) (in acetic acid, 293.15 K): 0.00556 | solubility (mole fraction) (in acetic acid, 298.15 K): 0.00672 | solubility (mole fraction) (in acetic acid, 303.15 K): 0.00786 | solubility (mole fraction) (in acetic acid, 308.15 K): 0.00913 | solubility (mole fraction) (in acetic acid, 313.15 K): 0.0105 | solubility (mole fraction) (in acetic acid, 318.15 K): 0.0121 | solubility (mole fraction) (in acetic acid, 323.15 K): 0.014 | solubility (mole fraction) (in acetic acid, 328.15 K): 0.0164 | solubility (mole fraction) (in acetic acid, 333.15 K): 0.0192 | solubility (mole fraction) (in acetone, 293.15 K): 0.0363 | solubility (mole fraction) (in acetone, 298.15 K): 0.0389 | solubility (mole fraction) (in acetone, 303.15 K): 0.0423 | solubility (mole fraction) (in acetone, 308.15 K): 0.0461 | solubility (mole fraction) (in acetone, 313.15 K): 0.0506 | solubility (mole fraction) (in acetone, 318.15 K): 0.0547 | solubility (mole fraction) (in acetone, 323.15 K): 0.0607 | solubility (mole fraction) (in acetone, 328.15 K): 0.0661 | solubility (mole fraction) (in ethanol, 293.15 K): 0.0218 | solubility (mole fraction) (in ethanol, 298.15 K): 0.0258 | solubility (mole fraction) (in ethanol, 303.15 K): 0.0294 | solubility (mole fraction) (in ethanol, 308.15 K): 0.0331 | solubility (mole fraction) (in ethanol, 313.15 K): 0.037 | solubility (mole fraction) (in ethanol, 318.15 K): 0.0415 | solubility (mole fraction) (in ethanol, 323.15 K): 0.0469 | solubility (mole fraction) (in ethanol, 328.15 K): 0.0537 | solubility (mole fraction) (in ethanol, 333.15 K): 0.0619 | solubility (mole fraction) (in ethyl acetate, 293.15 K): 0.0222 | solubility (mole fraction) (in ethyl acetate, 298.15 K): 0.0251 | solubility (mole fraction) (in ethyl acetate, 303.15 K): 0.0278 | solubility (mole fraction) (in ethyl acetate, 308.15 K): 0.0309 | solubility (mole fraction) (in ethyl acetate, 313.15 K): 0.0338 | solubility (mole fraction) (in ethyl acetate, 318.15 K): 0.0375 | solubility (mole fraction) (in ethyl acetate, 323.15 K): 0.0417 | solubility (mole fraction) (in ethyl acetate, 328.15 K): 0.0468 | solubility (mole fraction) (in ethyl acetate, 333.15 K): 0.0533 | solubility (mole fraction) (in isobutanol, 293.15 K): 0.0147 | solubility (mole fraction) (in isobutanol, 298.15 K): 0.0174 | solubility (mole fraction) (in isobutanol, 303.15 K): 0.0207 | solubility (mole fraction) (in isobutanol, 308.15 K): 0.0236 | solubility (mole fraction) (in isobutanol, 313.15 K): 0.0279 | solubility (mole fraction) (in isobutanol, 318.15 K): 0.0316 | solubility (mole fraction) (in isobutanol, 323.15 K): 0.0377 | solubility (mole fraction) (in isobutanol, 328.15 K): 0.0421 | solubility (mole fraction) (in isobutanol, 333.15 K): 0.0501 | solubility (mole fraction) (in isopropanol, 293.15 K): 0.0234 | solubility (mole fraction) (in isopropanol, 298.15 K): 0.0267 | solubility (mole fraction) (in isopropanol, 303.15 K): 0.0306 | solubility (mole fraction) (in isopropanol, 308.15 K): 0.035 | solubility (mole fraction) (in isopropanol, 313.15 K): 0.0406 | solubility (mole fraction) (in isopropanol, 318.15 K): 0.0446 | solubility (mole fraction) (in isopropanol, 323.15 K): 0.0514 | solubility (mole fraction) (in isopropanol, 328.15 K): 0.0565 | solubility (mole fraction) (in isopropanol, 333.15 K): 0.0649 | solubility (mole fraction) (in methanol, 293.15 K): 0.0131 | solubility (mole fraction) (in methanol, 298.15 K): 0.0155 | solubility (mole fraction) (in methanol, 303.15 K): 0.018 | solubility (mole fraction) (in methanol, 308.15 K): 0.0208 | solubility (mole fraction) (in methanol, 313.15 K): 0.0239 | solubility (mole fraction) (in methanol, 318.15 K): 0.0271 | solubility (mole fraction) (in methanol, 323.15 K): 0.0313 | solubility (mole fraction) (in methanol, 328.15 K): 0.0358 | solubility (mole fraction) (in methanol, 333.15 K): 0.0415 | solubility (mole fraction) (in methyl acetate, 293.15 K): 0.0204 | solubility (mole fraction) (in methyl acetate, 298.15 K): 0.0225 | solubility (mole fraction) (in methyl acetate, 303.15 K): 0.025 | solubility (mole fraction) (in methyl acetate, 308.15 K): 0.0286 | solubility (mole fraction) (in methyl acetate, 313.15 K): 0.0318 | solubility (mole fraction) (in methyl acetate, 318.15 K): 0.0349 | solubility (mole fraction) (in methyl acetate, 323.15 K): 0.0402 | solubility (mole fraction) (in methyl acetate, 328.15 K): 0.0447 | solubility (mole fraction) (in n-butanol, 293.15 K): 0.0268 | solubility (mole fraction) (in n-butanol, 298.15 K): 0.03 | solubility (mole fraction) (in n-butanol, 303.15 K): 0.0346 | solubility (mole fraction) (in n-butanol, 308.15 K): 0.0382 | solubility (mole fraction) (in n-butanol, 313.15 K): 0.0431 | solubility (mole fraction) (in n-butanol, 318.15 K): 0.0466 | solubility (mole fraction) (in n-butanol, 323.15 K): 0.0529 | solubility (mole fraction) (in n-butanol, 328.15 K): 0.0579 | solubility (mole fraction) (in n-butanol, 333.15 K): 0.0663 | solubility (mole fraction) (in n-propanol, 293.15 K): 0.0234 | solubility (mole fraction) (in n-propanol, 298.15 K): 0.0259 | solubility (mole fraction) (in n-propanol, 303.15 K): 0.0288 | solubility (mole fraction) (in n-propanol, 308.15 K): 0.0323 | solubility (mole fraction) (in n-propanol, 313.15 K): 0.0372 | solubility (mole fraction) (in n-propanol, 318.15 K): 0.0402 | solubility (mole fraction) (in n-propanol, 323.15 K): 0.0453 | solubility (mole fraction) (in n-propanol, 328.15 K): 0.0513 | solubility (mole fraction) (in n-propanol, 333.15 K): 0.0574

Reference: BigSolDB 2.1
